# System: growth hormone (GH) release
# Assay: In vivo GH release in pentobarbital anesthetized rats (serum GH by RIA)
# Set-up: species or system immature female Sprague-Dawley rats
# Conditions: Table 4, control GH 181 ± 69
# Method: Immature female Sprague-Dawley rats were obtained from the Charles River Laboratories (Wilmington, Mass.). After arrival they were housed at 25° C. with a 14:10 hour light:dark cycle. Water and Purina rat chow were available ad libitum. Pups were kept with their mothers until 21 days of age.
# Twenty-six day old rats, six rats per treatment group, were anesthetized interperitoneally with 50 mg/Kg of pentobarbital 20 minutes prior to i. v. treatment with peptide. Normal saline with 0.1% gelatin was the vehicle for intravenous (i. v.) injections of the peptides. The anesthetized rats, weighing 55-65 grams, were injected i. v. with the quantity of growth hormone releasing compounds indicated in Tables 3 and 4. Injection was made as a 0.2 mL solution into the jugular vein.
# All animals were sacrificed by guillotine 10 minutes after the final test injection (see Tables 3 and 4). Trunk blood for the determination of blood GH levels was collected following decapitation. After allowing the blood to clot, it was centrifuged and the serum was separated from the clot. […]
# The mixed reagents are then typically incubated at room temperature (about 25° C.) for about 24 hours prior to addition of a second antibody (e.g., goat or rabbit anti-monkey gamma globulin serum) which binds to and causes precipitation of the complexed growth hormone antiserum. Precipitated contents of the RIA tubes are then analyzed for the number of counts in a specified period of time in a gamma scintillation counter. […] GH levels of unknowns are then determined by reference to the standard curve.
# Serum GH was measured by RIA with reagents provided by the National Hormone and Pituitary Program.
# Serum levels in Tables 3 and 4 are recorded in ng/mL in terms of the rat GH standard of 0.61 International Units/mg (IU/mg). Data is recorded as the mean +/- standard error of the mean (SEM). […]
substance,measurement,setting,value
His--DCys(SMe)--Ala--Trp--DPhe--Lys--NH2,GH Released,total dose 1.0 μg i.v.,193 ± 28 ng/mL
same,GH Released,total dose 3.0 μg i.v.,180 ± 34 ng/mL
same,GH Released,total dose .3 μg i.v.,178 ± 28 ng/mL

# Source: patent US5486505A, “Polypeptide compounds having growth hormone releasing activity” (Polygen Holding Corporation, priority 1992, dated 1996)
